Laboratory results published in patent US9181238B2, “N-(pyridin-2-yl)sulfonamides and compositions thereof as protein kinase inhibitors” (NOVARTIS AG, priority 2010, dated 2015).
pIC50: −log10 of the molar value.

System: A375-luc cells
Experiment: A375 Cellular Proliferation Assay
Type: cell-based
Conditions: Homo sapiens, A-375, 48 h; A375-luc melanoma cells (B-Raf V600E), 2 days incubation, BrightGlo luminescence; read-out: A375 CP IC50
Method: A375 Cellular Proliferation Assay
A375 is a melanoma cell line that harbors the B-Raf V600E mutation. A375-luc cells engineered to express luciferase are plated to 384-well white clear bottom plates as 1,500 cells/50 μl/well in DMEM containing 10% FBS. Compounds of the invention dissolved in 100% DMSO at appropriate concentrations are transferred to the cells by a robotic Pin Tool (100 nl). The cells are incubated for 2 days at […], then 25 μl of BrightGlo™ is added to each well and the plates are read by luminescence. The concentration of each compound for 50% inhibition (IC50) was calculated by non-linear regression using XL Fit data analysis software.

Structure (SMILES) | pIC50
CCCS(=O)(=O)Nc1nccc(-c2cc3cnc(NC)nc3n(C)c2=O)c1F [Compound 11, N-(3-fluoro-4-(8-methyl-2-(methylamino)-7-oxo-7,8-dihydropyrido[2,3-d]pyrimidin-6-yl)pyridin-2-yl)propane-1-sulfonamide] | 6.64
CCCS(=O)(=O)Nc1ncc(F)c(-c2cc3cnc(NC)nc3n(C)c2=O)c1F [Compound 10, N-(3,5-difluoro-4-(8-methyl-2-(methylamino)-7-oxo-7,8-dihydropyrido[2,3-d]pyrimidin-6-yl)pyridin-2-yl)propane-1-sulfonamide] | 7.25
CCCS(=O)(=O)Nc1ncc(F)c(Nc2nccnc2-c2cc(NCC(F)(F)F)ncn2)c1F [Compound 7, N-(3,5-difluoro-4-(3-(6-(2,2,2-trifluoroethylamino)pyrimidin-4-yl)pyrazin-2-ylamino)pyridin-2-yl)propane-1-sulfonamide] | 7.31
CCCS(=O)(=O)Nc1ncc(F)c(-c2cc3cnc(NCC)cc3n(C)c2=O)c1F [Compound 13, N-(4-(7-(Ethylamino)-1-methyl-2-oxo-1,2-dihydro-1,6-naphthyridin-3-yl)-3,5-difluoropyridin-2-yl)propane-1-sulfonamide] | 8.00
CCCS(=O)(=O)Nc1ncc(F)c(Nc2nccnc2-c2cc(NC)ncn2)c1F [Compound 5, N-(3,5-difluoro-4-(3-(6-(methylamino)pyrimidin-4-yl)pyrazin-2-ylamino)pyridin-2-yl)propane-1-sulfonamide] | 7.51
CCCS(=O)(=O)Nc1ncc(F)c(Nc2nccnc2-c2cc(NCC)ncn2)c1Cl [Compound 6, N-(3-chloro-4-(3-(6-(ethylamino)pyrimidin-4-yl)pyrazin-2-ylamino)-5-fluoropyridin-2-yl)propane-1-sulfonamide] | 6.92
CNc1ncc2cc(-c3c(F)cnc(NS(=O)(=O)CCC(F)(F)F)c3F)c(=O)n(C)c2n1 [Compound 14, N-(3,5-difluoro-4-(8-methyl-2-(methylamino)-7-oxo-7,8-dihydropyrido[2,3-d]pyrimidin-6-yl)pyridin-2-yl)-3,3,3-trifluoropropane-1-sulfonamide] | 6.89
CCCS(=O)(=O)Nc1ncc(F)c(Nc2nccnc2-c2cc(NCCS(C)(=O)=O)ncn2)c1F [Compound 8, N-(3,5-difluoro-4-(3-(6-(2-(methylsulfonyl)ethylamino)pyrimidin-4-yl)pyrazin-2-ylamino)pyridin-2-yl)propane-1-sulfonamide] | 6.72
CCCS(=O)(=O)Nc1ncc(F)c(-c2cc3cnc(NC[C@H](C)NC(=O)OC)nc3n(C)c2=O)c1F [Compound 12, (S)-methyl 1-(6-(3,5-difluoro-2-(propylsulfonamido)pyridin-4-yl)-8-methyl-7-oxo-7,8-dihydropyrido[2,3-d]pyrimidin-2-ylamino)propan-2-ylcarbamate] | 7.85
CCCS(=O)(=O)Nc1ncc(F)c(Nc2nccnc2-c2cc(NCC)ncn2)c1F [Compound 1, N-(4-(3-(6-(Ethylamino)pyrimidin-4-yl)pyrazin-2-ylamino)-3,5-difluoropyridin-2-yl)propane-1-sulfonamide] | 7.89
CCCS(=O)(=O)Nc1ncc(F)c(-c2cc3cnc(NCCC#N)cc3n(C)c2=O)c1F [Compound 15, N-(4-(7-(2-cyanoethylamino)-1-methyl-2-oxo-1,2-dihydro-1,6-naphthyridin-3-yl)-3,5-difluoropyridin-2-yl)propane-1-sulfonamide] | 7.92
CCCS(=O)(=O)Nc1ncc(F)c(Nc2nccnc2-c2cc(NCCC(F)(F)F)ncn2)c1F [Compound 3, N-(3,5-difluoro-4-(3-(6-(3,3,3-trifluoropropylamino)pyrimidin-4-yl)pyrazin-2-ylamino)pyridin-2-yl)propane-1-sulfonamide] | 7.68
CCCS(=O)(=O)Nc1ncc(F)c(Nc2nccnc2-c2cc(NCC(F)F)ncn2)c1F [Compound 4, N-(4-(3-(6-(2,2-difluoroethylamino)pyrimidin-4-yl)pyrazin-2-ylamino)-3,5-difluoropyridin-2-yl)propane-1-sulfonamide] | 7.92
CCCS(=O)(=O)Nc1ncc(F)c(Nc2nccnc2-c2cc(NCCC#N)ncn2)c1F [Compound 2, N-(4-(3-(6-(2-cyanoethylamino)pyrimidin-4-yl)pyrazin-2-ylamino)-3,5-difluoropyridin-2-yl)propane-1-sulfonamide] | 8.52
